Assay results from article PMC12534982 (Journal of Experimental & Clinical Cancer Research : CR, 2025).

Experiments:
FBS-starved cancer cells = experiment: Serum starvation of cancer cells (CellTiter-Glo); assay type: cell-based, human; details: 25 µM, 24 h, FBS-free
Method: Cancer cells (7.5 × 10^3) were cultured in a 96-well plate in DMEM (fortified with 10% FBS) for 24 h. Subsequently, the cells were subjected to serum starvation (FBS-free DMEM) and treated with either DMSO or NK-A 17E-233I (25 µM) for an additional 24 h. Cell proliferation was measured using the CellTiter-Glo reagent as previously described.

SW620 cells [1] = experiment: RNA sequencing (RNASeq); assay type: cell-based, human; details: 25 µM, 48 h
Method: Cancer cells (2.2 × 10^6) were cultured in 100-mm Petri dishes and treated with either DMSO or NK-A 17E-233I (25 µM) for a duration of 48 h. Dry cell pellets were collected from three independent biological replicates and submitted to Novogene for RNASeq analysis (Cambridge, UK). The raw data are available in detail at the Zenodo repository (10.5281/zenodo.14833856).

colorectal cancer cells [2] = experiment: DNA damage immunostaining (γ-H2AX, Rad51); assay type: cell-based, human; details: 25 µM, 24 h
Method: To evaluate DNA damage, cancer cells (1 × 10^3) were cultured in 8-well collagen IV Ibidi chamber slides (#80,822; Ibidi) for 24 h, treated with DMSO or NK-A 17E-233I (25 µM) for an additional 24 h, and then fixed. For assessing the integrity of the cytoskeleton, neuronal cells (BFCNs) were cultured on coverslips for 14 days, while non-neuronal cells (cancer cells) were cultured on coverslips for 24 h. Both neuronal and non-neuronal cells were treated with DMSO or NK-A 17E-233I (1 µM) for 24 h, fixed, and permeabilized as described in [21]. Samples were then blocked (non-neuronal cells with 3% BSA in PBS-T and neuronal cells with 10% BSA in PBS-T) and incubated overnight at 4 °C with the appropriate primary antibodies. Following this, samples were washed with PBS-T and incubated for 1 h with Alexa-488 Phalloidin (#A12379; Invitrogen-ThermoFisher Scientific) to visualize F-actin, along with the corresponding secondary antibodies. The cells were mounted with Ibidi mounting medium containing 4',6-diamidino-2-phenylindole (DAPI, #50011; Ibidi) prior to imaging. […]
(§1) The density of γ-H2AX, Rad51, ΔΨm, and oxidative stress in cancer cells was measured as described in [32], utilizing custom macros available as open access at Zenodo (https://zenodo.org/records/8387899) to obtain raw intensities and individual cell area.

colorectal cancer cells [3] = experiment: Flow cytometry-based cell cycle analysis; parameters: species or system human
Method: Cancer cells (3 × 10^4) were cultured in 48-well plates and treated with DMSO or NK-A 17E-233I (25 µM) for 24 h. Following treatment, all wells were washed with PBS (#P4417; Sigma-Aldrich), and the cells were collected in Eppendorf tubes. The cells were harvested using 0.25% trypsin (#25200056; ThermoScientific) and 0.02% EDTA (1:1) (#17892; ThermoFisher Scientific) for 2 min, followed by the addition of DMEM. The tubes were then centrifuged at 500 × g for 5 min. The supernatant was discarded, and the pellets were fixed in 70% cold ethanol and stored at -20 °C for at least 1 h. The pellets were resuspended in 1 mL PBS and centrifuged at 500 × g at 4 °C for 5 min. The supernatant was discarded once again, and the pellets were subsequently reconstituted in a solution containing propidium iodide (PI; #25,535–16-4, Merck) and RNase (#N8080119, Applied Biosystems), followed by storage at 4 °C overnight. Cell cycle analysis was conducted using a CytoFLEX flow cytometer (Beckman Coulter; 405 nm laser). Cells were gated based on size and granularity on a forward scatter (FSC)/side scatter (SSC) plot, with cell debris excluded from the analysis. Mean fluorescence intensity from 1 × 10^4 cells was recorded. Data analysis was conducted using FlowJo software v10.8.1 (BD Life Sciences).

colorectal cancer cells [4] = experiment: Mitochondrial membrane potential (MitoTracker Red); assay type: cell-based, human
Method: Cancer cells (1 × 10^3) were cultured in 8-well collagen IV Ibidi chamber slides and treated with DMSO or NK-A 17E-233I (25 µM) for 24 h. The media was replaced with fresh media containing 100 nM MitoTracker Red dye to measure ΔΨm (1 mM stock; #M7512; Thermo Fisher Scientific) and 5 µM CellROX Deep Red Reagent to assess oxidative stress levels (2.5 mM stock; #C10422; Thermo Fisher Scientific) for 45 min. The cells were then fixed with 4% methanol-free PFA, washed with PBS, and mounted with Ibidi mounting medium containing 4',6-diamidino-2-phenylindole (DAPI) prior to imaging.
as §1

SW620 cells [5] = experiment: Mitochondrial respiration (OCR) in intact cells; assay type: cell-based, human; details: 24 h
Method: Oxygen consumption rate (OCR) was measured using a high-resolution respirometer (Oxygraph-2k, Oroboros Instruments, Innsbruck, Austria). SW620 cells (2.2 × 10^6) were cultured in 100-mm Petri dishes and treated with DMSO or NK-A 17E-233I (25 µM) for 24 h. Cells were harvested at 80% confluency using 0.25% trypsin/EDTA and resuspended in complete DMEM at a concentration of 5 × 10^5 cells/mL. The cells were subsequently analyzed in two 2 mL Oxygraph chambers. Real-time measurements of OCR were conducted at 37 °C under basal conditions and following the sequential addition of inhibitors targeting various mitochondrial respiratory complexes: oligomycin (2.5 μM) to inhibit complex V (to assess ATP-linked respiration and leak rate), carbonyl cyanide-p-trifluoromethoxyphenylhydrazone (FCCP) with stepwise titration in 0.5 μM increments (to evaluate maximal electron transport system respiratory capacity and reserve capacity), and rotenone (0.5 μM) and antimycin A (2.5 μM) to inhibit complex I and complex III, respectively (to measure non-mitochondrial oxygen consumption). The values of OCR were normalized to mitochondrial DNA copy number, which was quantified by qPCR using the primers referenced above. Data analysis was performed using DatLab7 (Oroboros, Austria) software.

SW620 cells [6] = experiment: Glutathione assay (GSH/GSSG); assay type: cell-based, human; details: 25 µM, 24 h
Method: Optical density measurements were recorded at 450 nm using a Victor Multilabel Plate Reader.

basal and ATP-linked respiration in intact cells (SW620 cells [5]; NK-A 17E-233I 25 µM, Brequinar 100 µM): retained basal respiration
Compound: COc1cc(C)c(Oc2cc(C)cc(O)c2O)c(O)c1 [NK-A 17E-233I]
effect on starved cancer cells (FBS-starved cancer cells): no significant effect
POLD2 gene expression (RNASeq) (SW620 cells [1]): significantly downregulated
intensity of γ-H2AX and Rad51 (colorectal cancer cells [2]): significant increase
cell cycle distribution (colorectal cancer cells [3]; 25 µM): arrest of colorectal cancer cells in the S-phase and an increase in sub-G1 cell populations
cell cycle after washout (colorectal cancer cells [3]; washout 12 h, NK-A 17E-233I 25 µM, HU 1 mM): remained arrested and/or underwent cell death
mitochondrial membrane potential (ΔΨm) (colorectal cancer cells [4]; HCT116, 25 µM, 24 h): significantly decreased
mitochondrial membrane potential (ΔΨm) (colorectal cancer cells [4]; different cancer cell lines (HT-29), 25 µM): decreased
maximal respiration (SW620 cells [5]; 25 µM): significantly decreased
GSH/GSSG ratio (SW620 cells [6]): significantly decreased
oxidized glutathione (GSSG) levels (SW620 cells [6]): increasing
reduced glutathione (GSH) levels (SW620 cells [6]): significantly decreased
